# Source: patent US20060058243A1, “Methods and compositions for treating diabetes mellitis” (priority 2002, published 2006)
# Tests used:
# 3T3-L1 adipocytes = assay: Glucose transport stimulatory (GTS) activity, 2-deoxy-D-[3H]glucose uptake; format: cell-based; conditions: 3T3-L1 adipocytes, FIG. 2
# Protocol: (§1) PGG, either as a mixture or as single isomer (α or β), is added to either adipocytes (A) or preadipocytes (B). GTS activity (A) and AD activity (B) of PGG are measured by ^3H-glucose uptake. GLUT4 is not expressed in preadipocytes, so glucose uptake can be used as an indirect measurement of adipocyte differentiation.
# Glucose uptake activity in cells may be analyzed by measuring the uptake of 2-deoxy-D-[^3H] glucose using a standard assay. Confluent 3T3-L1 adipocytes grown in 12-well plates are washed twice with serum-free DMEM and incubated with 1 mL of the same medium at 37° C. for 2 h. The cells are washed 3 times with Krebs-Ringer-Hepes (KRP) buffer and incubated with 0.9 mL KRP buffer at 37° C. for 30 min. […] Glucose uptake is initiated by addition of 0.1 mL KRP buffer and 37 MBq/L 2-deoxy-D-[^3H] glucose and 1 mmol/L glucose as final concentrations. After 10 min, glucose uptake is terminated by washing the cells 3 times with cold PBS. The cells are lysed with 0.7 mL of 1% Triton X-100 at 37° C. for 20 min. The radioactivity retained by the cell lysates is determined by a scintillation counter. The dosage that induces the maximal glucose uptake can be selected among the experimental samples.
# 3T3-L1 adipocytes were purchased from ATCC, and maintained and passed as preadipocytes in DMEM supplemented with 10% calf serum in a 37° C. incubator with 10% CO2 as required by the cells. The cells were induced to differentiate into adipocytes by addition of MDI induction cocktail as described in Liu, F., Kim, J., Li, Y., Liu, X., Li, J. & Chen, X. (2001) An extract of Lagerstroemia speciosa L. has insulin-like glucose uptake-stimulatory and adipocyte differentiation-inhibitory activities in 3T3-L1 cells. J. Nutrition 131:2242-224, which is specifically incorporated herein by reference. Varying amounts of α-PGG and β-PGG were then added to the medium and the amount of glucose taken up by control and treated cells determined using a standard glucose uptake assay, as described in Liu et al. As shown in FIG. 2A chemically synthesized and plant derived β-PGG have similar glucose transport stimulatory (GTS). The GTS activity of α-PGG is consistently 10-20% higher than that of β-PGG (FIG. 2).
# Confluent 3T3-L1 adipocytes grown in 12-well plates were washed twice with serum-free DMEM and incubated with 1 mL of the same medium at 37° C. for 2 h. The cells were washed 3 times with Krebs-Ringer-Hepes (KRP) buffer and incubated with 0.9 mL KRP buffer at 37° C. for 30 min. Compounds listed in the table below were then added at 20-40 μM (final concentration?) and adipocytes were incubated at 37° C. for 15 min. Glucose uptake was initiated by addition of 0.1 mL KRP buffer and 37 MBq/L 2-deoxy-D-[3H] glucose and 1 mmol/L glucose as final concentrations. After 10 min, glucose uptake was terminated by washing the cells 3 times with cold PBS. The cells were lysed with 0.7 mL of 1% Triton X-100 at 37° C. for 20 min. The radioactivity retained by the cell lysates is determined by a scintillation counter.
# 3T3-L1 preadipocytes [1] = assay: Adipocyte differentiation (AD) of preadipocytes, MDI induction, Oil Red O staining and glucose uptake; format: cell-based; conditions: about 10 days, 30 μM PGG, FIG. 8
# Protocol: as §1
# Ten days after induction, the cells were stained with Oil Red 0 and photographed at magnification X200. Only those cells that contain fat vesicles (triglyceride) can be stained.
# After about 10 days MDI induces differentiation, which is clearly visible as the change from fibroblast-like preadipcytes to round-shaped, fat vesicle-containing adipocytes.
# 3T3-L1 adipocytes were purchased from ATCC, and maintained and passed as preadipocytes in DMEM supplemented with 10% calf serum in a 37° C. incubator with 10% CO2 as required by the cells. To test the effect of PGG on adipogenesis, the preadipocytes were incubated either with a differentiation-induction cocktail comprised of 3-isobutyl-1-methylxanthine, […], a cocktail comprised of 3-isobutyl-1-methylxanthine, dexamethasone (MD) and PGG; or with MDI plus PGG.
# In order to study the mechanism by which PGG inhibits 3T3-L1 preadipocyte differentiation, we used gene expression studies. This strategy allows us to determine whether PGG specifically acts on genes that participate in the differentiation process. […] After about 10 days MDI induces differentiation, which is clearly visible as the change from fibroblast-like preadipcytes to round-shaped, fat vesicle-containing adipocytes (FIG. 8 middle).
# 3T3-L1 preadipocytes [2] = assay: Clonal expansion / cell proliferation assay by LDH activity; format: cell-based
# Protocol: Preadipocytes were induced to undergo clonal expansion by MDI, or α-PGG, or β-PGG in the presence of MDI. 24 or 48 hrs after induction, the media was removed and the cells were lysed. The […] (LDH) activity of the cell lysates was measured by LDH kit. Cell growth media were also collected and their LDH activity from dead cells was also measured (not shown on this graph). LDH activity is a constant per cell in a given cell type, the LDH activity measured is proportional to the number of cells in the samples.
# A cell proliferation assay was used to determine if PGG inhibits adipocyte differentiation by blocking clonal expansion. […] The basis for the difference between the anomers in clonal expansion and differentiation is not known.
# db/db mice = assay: Blood glucose in fasting diabetic db/db mice after oral dose; format: in vivo; conditions: single oral dose 25 mg/kg body weight, versus vehicle, P<0.01, FIG. 11A
# Protocol: (§2) FIG. 11. Effect of PGG on blood glucose levels in db/db and ob/ob mice. Various doses of α-PGG were orally delivered without glucose to db/db mice(A) or with glucose to ob/ob mice (B) mice. At different times post the delivery, glucose was determined in samples from tail blood.
# Male db/db (leptin receptor deficient) mice of 8 weeks of age may be used to determine in vivo dosages for simulating glucose uptake The mice are divided into three to four groups depending upon how many dosages are analyzed. Ten μl of a test solution with pre-determined concentrations of the test gallotannin composition is orally administered to the test mice. The negative control mice receive the same amount of water. After the administration, blood is collected from the mouse tail at various times post oral administration. The blood glucose level of a mouse at a given time post administration is measured by applying six μl of blood on a One Touch Basic Complete Diabetes Monitoring System (from Lifescan). The effective dosage range and the optimal dosage can be determined by comparison of the reduction of blood glucose levels by different dosages relative to the glucose level of the negative (water) control group.
# The reduction of the glucose level is about 15-20% depending on the time post α-pGG administration (P<0.01, FIG. 11A).
# ob/ob mice [3] = assay: Glucose tolerance test in ob/ob mice; format: in vivo
# Protocol: as §2
# FIG. 12. PGG protects ob/ob mice from hyperglycemia immediately after glucose challenge and hypoglycemia several days after the challenge. At various time points after the glucose challenge, blood glucose levels were measured in tail blood.
# To determine if α-PGG is also effective in improving glucose tolerance in diabetic and obese mice, a glucose tolerance test was performed using ob/ob mice. Glucose or glucose plus α-PGG were orally delivered into male ob/ob mice, and blood glucose levels were measured at various times post glucose/PGG administration.
# A single high does of glucose in ob/ob mice can be fatal, either because of the very high levels of blood glucose levels […] after the glucose challenge or because of the abnormally low glucose levels 2-3 days after the glucose challenge. […] Although the protection mechanisms are unknown at this time, it is very likely that α-PGG protected the ob/ob mice not only by its GTS activity, but also some other activity such as AD-related activity.
# ob/ob mice [4] = assay: Plasma insulin levels in ob/ob mice after intraperitoneal injection; format: in vivo; conditions: single intraperitoneal injection
# Protocol: Diabetic and obese ob/ob mice were injected intraperitoneally with either water or α-PGG. Plasma from each mouse was isolated at various times post injection and was measured for insulin levels.
# [5] = in the presence of MDI, FIG. 10
compound,measurement,setting,value
"O=C(OC[C@H]1O[C@H](OC(=O)c2cc(O)c(O)c(O)c2)[C@H](OC(=O)c2cc(O)c(O)c(O)c2)[C@@H](OC(=O)c2cc(O)c(O)c(O)c2)[C@@H]1OC(=O)c1cc(O)c(O)c(O)c1)c1cc(O)c(O)c(O)c1 [α-PGG, 1,2,3,4,6-penta-O-galloyl-α-D-glucose]",GTS activity higher than that of β-PGG,3T3-L1 adipocytes,10-20%
same,differentiation of preadipocytes treated with MDI plus compound,3T3-L1 preadipocytes [1],abolishes the differentiation
same,cell-killing compared to MDI induced cells,3T3-L1 preadipocytes [2]; data not shown,without significantly increased cell-killing
same,first round of clonal expansion,3T3-L1 preadipocytes [2]; [5],not inhibited
same,second round of clonal expansion,3T3-L1 preadipocytes [2]; [5],partially inhibited
same,reduction of the blood glucose level,db/db mice,15-20%
same,protection from extremely low glucose levels after glucose challenge,"ob/ob mice [3]; 2-5 days after challenge, FIG. 12",protected these mice from suffering extremely low glucose levels
same,time after treatment at which improved blood glucose levels could still be observed,"ob/ob mice [3]; ob/ob mice, oral",≥ 24 h
same,blood glucose levels compared to glucose alone,"ob/ob mice [3]; oral glucose plus α-PGG, P<0.001, FIG. 11B",significantly lower blood glucose levels
same,plasma insulin levels versus water,ob/ob mice [4],significantly lower plasma insulin levels
